Reference: patent US11053219B2, “Substituted pyridines as TYK2 inhibitors” (FronThera U.S. Pharmaceuticals LLC, priority 2018, dated 2021)
Read-outs that look alike come from different tables or passages of the source.

Legend:
TYK2 (JH2 domain) = TYK2 (JH2 domain) (Homo sapiens (Human), UniProt P29597); assay: TYK2 JH2 domain binding assay (DiscoverX KINOMEscan); conditions: 11-point 3-fold dilution, duplicate
[1] = system: IL12-induced p-STAT4 in human PBMC; assay: IL-12 induced pSTAT4 in human PBMC; format: cell-based; conditions: read-out: p-STAT4 IC50
[2] = system: INFα induced pSTAT3 in human PBMC; assay: INFα induced pSTAT3 in human PBMC; format: cell-based; conditions: read-out: p-STAT3 IC50
Protocol: Fresh Human PBMCs were resuspended in RPMI 1640 medium with 10% FBS. Cells were seeded in a round bottom 96-well plate at the concentration of 200,000 cells/well. A 10-point dilution series of test compound (top dose 10 uM, 1:5 dilution) was added to the well using the liquid dispenser (Tecan D300e) and incubated for 1 hour at 37 C. Then human INFα recombinant protein (R&D Systems) was added to the well at the final concentration of 5000 units/ml and incubated for 15 minutes at 37 C. Cell lysates were prepared and analyzed by Phospho STAT3 (Tyr705) cellular kit (Cisbio) or Phospho STAT5 (Tyr693) Kit (Meso Scale Discovery) following manufacturer's protocol.
For calculation of the inhibition rate, the relative pSTAT signal of each well=pSTAT signal of each well−the average pSTAT signal of baseline. The inhibition %=(the average pSTAT signal of INFα treatment wells−the relative of pSTAT signal in each compound containing well)/the average pSTAT signal of INFα treatment wells*100%
The curve was plotted as the inhibition % (y-axis) vs. compounds concentration (x-axis) and was fitted with log(inhibitor) vs. normalized response—Variable slope by GraphPad Prism7.0.

TYK2 (JH2 domain), sequence (P29597 589-875): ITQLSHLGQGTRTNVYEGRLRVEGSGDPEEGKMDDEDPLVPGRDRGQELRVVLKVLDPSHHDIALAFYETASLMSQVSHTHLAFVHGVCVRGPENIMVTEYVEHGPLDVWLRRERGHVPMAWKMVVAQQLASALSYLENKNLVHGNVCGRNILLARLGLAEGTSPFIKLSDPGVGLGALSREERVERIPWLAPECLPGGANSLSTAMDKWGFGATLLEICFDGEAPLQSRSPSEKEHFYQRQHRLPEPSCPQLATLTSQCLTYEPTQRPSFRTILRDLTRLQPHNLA

[2H]C([2H])([2H])NC(=O)c1nnc(N2CCNC2=O)cc1Nc1cccc(-c2ncn(C)n2)c1OC [Example 1, 4-[2-methoxy-3-(1-methyl-1,2,4-triazol-3-yl)anilino]-6-(2-oxoimidazolidin-1-yl)-N-(trideuteriomethyl)pyridazine-3-carboxamide]
Kd (TYK2 (JH2 domain)): ≤ 1 nM
IC50 ([1]; human PBMC, IL-12 10 ng/ml): < 100 nM
IC50 ([2]; human PBMC, INFα 5000 units/ml): 100 to 1000 nM

[2H]C([2H])([2H])NC(=O)c1nnc(N2CCN(C)C2=O)cc1Nc1cccc(-c2ncn(C)n2)c1OC [Example 2, 4-[2-methoxy-3-(1-methyl-1,2,4-triazol-3-yl)anilino]-6-(3-methyl-2-oxo-imidazolidin-1-yl)-N-(trideuteriomethyl)pyridazine-3-carboxamide]
Kd (TYK2 (JH2 domain)): ≤ 1 nM
IC50 ([1]; human PBMC, IL-12 10 ng/ml): < 100 nM
IC50 ([2]; human PBMC, INFα 5000 units/ml): 100 to 1000 nM

[2H]C([2H])([2H])NC(=O)c1nnc(N2CCC2=O)cc1Nc1cccc(-c2ncn(C)n2)c1OC [Example 3, 4-[2-methoxy-3-(1-methyl-1,2,4-triazol-3-yl)anilino]-N-methyl-6-(2-oxoazetidin-1-yl) pyridazine-3-carboxamide]
Kd (TYK2 (JH2 domain)): 5 to 10 nM
IC50 ([1]; human PBMC, IL-12 10 ng/ml): 100 to 1000 nM
IC50 ([2]; human PBMC, INFα 5000 units/ml): 1000 to 10000 nM

[2H]C([2H])([2H])NC(=O)c1nnc(N2CCC3(CC3)C2=O)cc1Nc1cccc(-c2ncn(C)n2)c1OC [Example 4, 4-[2-methoxy-3-(1-methyl-1,2,4-triazol-3-yl)anilino]-6-(4-oxo-5-azaspiro[2.4]heptan-5-yl)-N-(trideuteriomethyl)pyridazine-3-carboxamide]
Kd (TYK2 (JH2 domain)): ≤ 1 nM
IC50 ([1]; human PBMC, IL-12 10 ng/ml): < 100 nM
IC50 ([2]; human PBMC, INFα 5000 units/ml): 100 to 1000 nM

[2H]C([2H])([2H])NC(=O)c1nnc(N2CCN(C3CC3)C2=O)cc1Nc1cccc(-c2ncn(C)n2)c1OC [Example 5, 6-(3-cyclopropyl-2-oxo-imidazolidin-1-yl)-4-[2-methoxy-3-(1-methyl-1,2,4-triazol-3-yl)anilino]-N-(trideuteriomethyl)pyridazine-3-carboxamide]
Kd (TYK2 (JH2 domain)): ≤ 1 nM
IC50 ([1]; human PBMC, IL-12 10 ng/ml): < 100 nM
IC50 ([2]; human PBMC, INFα 5000 units/ml): 100 to 1000 nM

[2H]C([2H])([2H])NC(=O)c1nnc(N2CCC(C)(C)C2=O)cc1Nc1cccc(-c2ncn(C)n2)c1OC [Example 7, 6-(3,3-dimethyl-2-oxo-pyrrolidin-1-yl)-4-[2-methoxy-3-(1-methyl-1,2,4-triazol-3-yl)anilino]-N-(trideuteriomethyl)pyridazine-3-carboxamide]
IC50 ([1]; human PBMC, IL-12 10 ng/ml): 100 to 1000 nM
IC50 ([2]; human PBMC, INFα 5000 units/ml): 100 to 1000 nM

[2H]C([2H])([2H])NC(=O)c1nnc(N2CCN(CC(F)F)C2=O)cc1Nc1cccc(-c2ncn(C)n2)c1OC [Example 8, 6-[3-(2,2-difluoroethyl)-2-oxo-imidazolidin-1-yl]-4-[2-methoxy-3-(1-methyl-1,2,4-triazol-3-yl)anilino]-N-(trideuteriomethyl)pyridazine-3-carboxamide; 2,2,2-trifluoroacetic acid]
Kd (TYK2 (JH2 domain)): ≤ 1 nM
IC50 ([1]; Homo sapiens, PBMC): < 100 nM
IC50 ([2]; Homo sapiens, PBMC): < 100 nM

[2H]C([2H])([2H])NC(=O)c1nnc(N2CCN(CCOC)C2=O)cc1Nc1cccc(-c2ncn(C)n2)c1OC [Example 9, 6-[3-(2-methoxyethyl)-2-oxo-imidazolidin-1-yl]-4-[2-methoxy-3-(1-methyl-1,2,4-triazol-3-yl)anilino]-N-(trideuteriomethyl)pyridazine-3-carboxamide]
Kd (TYK2 (JH2 domain)): ≤ 1 nM
IC50 ([1]; human PBMC, IL-12 10 ng/ml): < 100 nM
IC50 ([2]; human PBMC, INFα 5000 units/ml): 100 to 1000 nM

[2H]C([2H])([2H])NC(=O)c1nnc(N2CCN(CC)C2=O)cc1Nc1cccc(-c2ncn(C)n2)c1OC [Example 12, 6-(3-ethyl-2-oxo-imidazolidin-1-yl)-4-[2-methoxy-3-(1-methyl-1,2,4-triazol-3-yl)anilino]-N-(trideuteriomethyl)pyridazine-3-carboxamide]
Kd (TYK2 (JH2 domain)): ≤ 1 nM
IC50 ([1]; Homo sapiens, PBMC): < 100 nM
IC50 ([2]; Homo sapiens, PBMC): < 100 nM

[2H]C([2H])([2H])NC(=O)c1nnc(N2CCN(C(C([2H])([2H])[2H])C([2H])([2H])[2H])C2=O)cc1Nc1cccc(-c2ncn(C)n2)c1OC [Example 13, 6-(3-isopropyl-2-oxo-imidazolidin-1-yl)-4-[2-methoxy-3-(1-methyl-1,2,4-triazol-3-yl)anilino]-N-(trideuteriomethyl)pyridazine-3-carboxamide]
IC50 ([1]; Homo sapiens, PBMC): < 100 nM
IC50 ([2]; Homo sapiens, PBMC): < 100 nM

[2H]C([2H])([2H])NC(=O)c1c(Nc2cccc(-c3ncn(C)n3)c2OC)cc(NC(=O)C2CC2)nc1F [Example 23]
Kd (TYK2 (JH2 domain)): ≤ 1 nM
IC50 ([1]; human PBMC, IL-12 10 ng/ml): 100 to 1000 nM
IC50 ([2]; human PBMC, INFα 5000 units/ml): 100 to 1000 nM

COc1c(Nc2cc(NC(=O)C3CC3)nnc2C(C)=O)cccc1-c1ncn(C)n1 [Example 24]
Kd (TYK2 (JH2 domain)): 1 to 5 nM
IC50 ([1]; human PBMC, IL-12 10 ng/ml): 100 to 1000 nM
IC50 ([2]; human PBMC, INFα 5000 units/ml): 100 to 1000 nM

CCC(=O)c1nnc(NC(=O)C2CC2)cc1Nc1cccc(-c2ncn(C)n2)c1OC [Example 25]
Kd (TYK2 (JH2 domain)): ≤ 1 nM
IC50 ([1]; human PBMC, IL-12 10 ng/ml): 100 to 1000 nM
IC50 ([2]; human PBMC, INFα 5000 units/ml): 100 to 1000 nM

COc1c(Nc2cc(NC(=O)C3CC3)nnc2C(=O)C2CC2)cccc1-c1ncn(C)n1 [Example 26]
Kd (TYK2 (JH2 domain)): ≤ 1 nM
IC50 ([1]; human PBMC, IL-12 10 ng/ml): < 100 nM
IC50 ([2]; human PBMC, INFα 5000 units/ml): 100 to 1000 nM

COc1c(Nc2cc(NC(=O)C3CC3)nc3ncn(C)c(=O)c23)cccc1-c1ncn(C)n1 [Example 39]
Kd (TYK2 (JH2 domain)): 5 to 10 nM
IC50 ([1]; human PBMC, IL-12 10 ng/ml): 100 to 1000 nM
IC50 ([2]; human PBMC, INFα 5000 units/ml): 100 to 1000 nM

[2H]C([2H])([2H])NC(=O)c1nnc(N/C(=N/O)C2CC2)cc1Nc1cccc(-c2ncn(C)n2)c1OC [Example 40]
Kd (TYK2 (JH2 domain)): ≤ 1 nM
IC50 ([1]; human PBMC, IL-12 10 ng/ml): 100 to 1000 nM
IC50 ([2]; human PBMC, INFα 5000 units/ml): 100 to 1000 nM

COc1c(Nc2cc(NC(=O)C3CC3)nc3c2C2=NC(=O)CN2C3)cccc1-c1ncn(C)n1 [Example 41]
Kd (TYK2 (JH2 domain)): 1 to 5 nM
IC50 ([1]; human PBMC, IL-12 10 ng/ml): 1000 to 10000 nM
IC50 ([2]; human PBMC, INFα 5000 units/ml): 1000 to 10000 nM

[2H]C([2H])([2H])NC(=O)c1c(Nc2cccc(-c3nnn(C)n3)c2OC)cc(NC(=O)C2CC2)nc1F [Example 42]
Kd (TYK2 (JH2 domain)): 1 to 5 nM
IC50 ([1]; human PBMC, IL-12 10 ng/ml): 100 to 1000 nM
IC50 ([2]; human PBMC, INFα 5000 units/ml): 1000 to 10000 nM

COc1c(Nc2cc(NC(=O)C3CC3)nc3c2C(=O)NC3)cccc1-c1ncn(C)n1 [Example 43]
Kd (TYK2 (JH2 domain)): 5 to 10 nM
IC50 ([1]; human PBMC, IL-12 10 ng/ml): > 10000 nM
IC50 ([2]; human PBMC, INFα 5000 units/ml): 1000 to 10000 nM

COc1c(Nc2cc(NC(=O)C3CC3)nnc2C(=O)C(F)F)cccc1-c1ncn(C)n1 [Example 44]
Kd (TYK2 (JH2 domain)): 1 to 5 nM
IC50 ([1]; human PBMC, IL-12 10 ng/ml): 100 to 1000 nM
IC50 ([2]; human PBMC, INFα 5000 units/ml): 1000 to 10000 nM

COc1c(Nc2cc(NC(=O)C3CC3)nc3cn(C)nc23)cccc1-c1ncn(C)n1 [Example 55]
Kd (TYK2 (JH2 domain)): 1 to 5 nM
IC50 ([1]; human PBMC, IL-12 10 ng/ml): 100 to 1000 nM
IC50 ([2]; human PBMC, INFα 5000 units/ml): 100 to 1000 nM

[2H]C([2H])([2H])NC(=O)c1nnc(N2CCCC2=O)cc1Nc1cccc(-c2ncn(C)n2)c1OC [Example 56]
Kd (TYK2 (JH2 domain)): 1 to 5 nM
IC50 ([1]; human PBMC, IL-12 10 ng/ml): 100 to 1000 nM
IC50 ([2]; human PBMC, INFα 5000 units/ml): 1000 to 10000 nM

[2H]C([2H])([2H])NC(=O)c1nnc(N2CC(F)(F)C2=O)cc1Nc1cccc(-c2ncn(C)n2)c1OC [Example 57]
Kd (TYK2 (JH2 domain)): 1 to 5 nM
IC50 ([1]; human PBMC, IL-12 10 ng/ml): 1000 to 10000 nM
IC50 ([2]; human PBMC, INFα 5000 units/ml): 1000 to 10000 nM

CNC(=O)c1nnc(N2CCCC2=O)cc1Nc1cccc(-c2ncn(C)n2)c1OC [Example 59]
Kd (TYK2 (JH2 domain)): 1 to 5 nM
IC50 ([1]; human PBMC, IL-12 10 ng/ml): 1000 to 10000 nM
IC50 ([2]; human PBMC, INFα 5000 units/ml): 1000 to 10000 nM

[2H]C([2H])([2H])NC(=O)c1nnc(N2CCOC2=O)cc1Nc1cccc(-c2ncn(C)n2)c1OC [Example 60]
Kd (TYK2 (JH2 domain)): 1 to 5 nM
IC50 ([1]; human PBMC, IL-12 10 ng/ml): > 10000 nM
IC50 ([2]; human PBMC, INFα 5000 units/ml): > 10000 nM

[2H]C([2H])([2H])NC(=O)c1nnc(N2CCC(C#N)(C3CC3)C2=O)cc1Nc1cccc(-c2ncn(C)n2)c1OC (stereo not shown) [Example 61]
Kd (TYK2 (JH2 domain)): 1 to 5 nM
IC50 ([1]; human PBMC, IL-12 10 ng/ml): 1000 to 10000 nM
IC50 ([2]; human PBMC, INFα 5000 units/ml): 1000 to 10000 nM

[2H]C([2H])([2H])NC(=O)c1nnc(N2CC(C)(C)C2)cc1Nc1cccc(-c2ncn(C)n2)c1OC [Example 62]
Kd (TYK2 (JH2 domain)): 5 to 10 nM
IC50 ([1]; human PBMC, IL-12 10 ng/ml): 1000 to 10000 nM
IC50 ([2]; human PBMC, INFα 5000 units/ml): 1000 to 10000 nM

[2H]C([2H])([2H])NC(=O)c1nnc(-n2ccn(C)c2=O)cc1Nc1cccc(-c2ncn(C)n2)c1OC [Example 63]
Kd (TYK2 (JH2 domain)): ≤ 1 nM
IC50 ([1]; human PBMC, IL-12 10 ng/ml): 100 to 1000 nM
IC50 ([2]; human PBMC, INFα 5000 units/ml): 100 to 1000 nM

[2H]C([2H])([2H])NC(=O)c1nnc(N2CCC(C)C2=O)cc1Nc1cccc(-c2ncn(C)n2)c1OC (stereo not shown) [Example 64]
Kd (TYK2 (JH2 domain)): ≤ 1 nM
IC50 ([1]; human PBMC, IL-12 10 ng/ml): 100 to 1000 nM
IC50 ([2]; human PBMC, INFα 5000 units/ml): 100 to 1000 nM

[2H]C([2H])([2H])NC(=O)c1nnc(N2CCN(CC(F)(F)F)C2=O)cc1Nc1cccc(-c2ncn(C)n2)c1OC [Example 67]
Kd (TYK2 (JH2 domain)): ≤ 1 nM
IC50 ([1]; human PBMC, IL-12 10 ng/ml): < 100 nM
IC50 ([2]; human PBMC, INFα 5000 units/ml): 100 to 1000 nM
